Results published in ChEMBL document CHEMBL4251601 (Eur J Med Chem, 2018).

What was measured:
[1] = target: CDK8/Cyclin C (Homo sapiens) (UniProt P49336+P24863); test: Inhibition of recombinant full length human His-tagged CDK8/Cyclin-C expressed in baculovirus expression system at 1 uM by LanthaScreen assay relative to control
[2] = target: Serine/threonine-protein kinase PLK1 (Homo sapiens) (UniProt P53350); test: Inhibition of recombinant human full length His-tagged PLK1 expressed in baculovirus expression system at 1 uM by Z'-Lyte assay relative to control
[3] = target: Glycogen synthase kinase-3 beta (Homo sapiens) (UniProt P49841); test: Inhibition of recombinant human full length His-tagged GSK3beta expressed in baculovirus expression system at 1 uM by Z'-Lyte assay relative to control
[4] = AUC (0 to 48 hrs) in CD-1 mouse plasma at 10 mg/kg, po administered as single dose by LC-MS/MS analysis; format: ADME, organism-based; parameters: time < 48 hr, dose 10 mg/kg, route oral
[5] = target: Platelet-derived growth factor receptor beta (Homo sapiens) (UniProt P09619); test: Inhibition of recombinant human His-tagged PDGFRbeta cytoplasmic domain expressed in baculovirus expression system at 0.1 uM by Z'-Lyte assay relative to control
[6] = Volume of distribution at steady state in Sprague-Dawley rat at 2 mg/kg, iv administered as single dose by LC-MS/MS analysis; format: ADME, organism-based; settings: in vivo, read-out: Vdss
[7] = target: Tyrosine-protein kinase JAK3 (Homo sapiens, UniProt P52333); test: Inhibition of recombinant human GST-tagged JAK3 cytoplasmic domain (781 to 1124 residues) expressed in baculovirus expression system using ULight-JAK-1 peptide as substrate preincubated for 15 mins followed by ATP addition measured after 90 mins
[8] = target: CDK6/cyclin D3 (Homo sapiens, UniProt Q00534); test: Inhibition of CDK6/Cyclin-D3 (unknown origin) using histoneH1 as substrate after 90 mins by ADP-Glo assay; format: protein-complex assay
[9] = Half life in Sprague-Dawley rat at 2 mg/kg, iv administered as single dose by LC-MS/MS analysis; format: ADME, organism-based; settings: in vivo
[10] = test system: Epidermal growth factor receptor (Homo sapiens), P00533 [L858R,T790M]; test: Inhibition of recombinant human GST-tagged EGFR T790M/L858R double mutant expressed in baculovirus expression system at 1 uM by TR-FRET assay relative to control
[11] = target: Serine/threonine-protein kinase TAO2 (Homo sapiens) (UniProt Q9UL54); test: Inhibition of recombinant human GST-tagged TAOK2 expressed in baculovirus expression system at 1 uM by Z'-Lyte assay relative to control
[12] = test system: Proto-oncogene tyrosine-protein kinase receptor Ret (Homo sapiens), P07949 [V804L]; test: Inhibition of recombinant human GST-tagged RET V804L mutant expressed in baculovirus expression system at 1 uM by Z'-Lyte assay relative to control
[13] = AUC (0 to infinity) in Sprague-Dawley rat at 2 mg/kg, iv administered as single dose by LC-MS/MS analysis; format: ADME, organism-based; parameters: dose 2 mg/kg, route intravenous, time infinity; settings: Sprague-Dawley, in vivo
[14] = test system: U-87 MG; test: Antitumor activity against luciferase-fused human U87MG cells orthotopically xenografted in nude mouse assessed as increase in mouse life span at 12.5 mg/kg, po qd for 5 weeks relative to control; format: functional, U-87MG ATCC; settings: 840 h
[15] = target: Aurora kinase A (Homo sapiens) (UniProt O14965); test: Inhibition of recombinant full length human His-tagged AURKA expressed in baculovirus expression system at 0.1 uM by Z'-Lyte assay relative to control
[16] = Unbound AUC (0 to 24 hrs) in CD-1 mouse plasma at 10 mg/kg, po administered as single dose by LC-MS/MS analysis; format: ADME, organism-based; settings: in vivo
[17] = target: Platelet-derived growth factor receptor beta (Homo sapiens) (UniProt P09619); test: Inhibition of recombinant human His-tagged PDGFRbeta cytoplasmic domain expressed in baculovirus expression system at 1 uM by Z'-Lyte assay relative to control
[18] = target: Fibroblast growth factor receptor 1 (Homo sapiens) (UniProt P11362); test: Inhibition of recombinant human His-tagged FGFR1 cytoplasmic domain expressed in baculovirus expression system at 0.1 uM by Z'-Lyte assay relative to control
[19] = AUC (0 to 24 hrs) in ICR mouse at 2 mg/kg, iv administered as single dose by LC-MS/MS analysis; format: ADME, organism-based; parameters: dose 2 mg/kg, time < 24 hr, route intravenous; settings: in vivo
[20] = target: Protein kinase C beta type (Homo sapiens) (UniProt P05771); test: Inhibition of PKCbeta2 (unknown origin) at 1 uM by Z'-Lyte assay relative to control
[21] = target: Ephrin type-A receptor 2 (Homo sapiens) (UniProt P29317); test: Inhibition of recombinant human GST-tagged EPHA2 cytoplasmic domain expressed in baculovirus expression system at 0.1 uM by Z'-Lyte assay relative to control
[22] = target: Cyclin-dependent kinase 4/cyclin D1 (Homo sapiens, UniProt P11802); test: Inhibition of CDK4/Cyclin-D1 (unknown origin) using histone-H1 as substrate after 90 mins by ADP-Glo assay; format: protein-complex assay
[23] = target: Mitogen-activated protein kinase 8 (Homo sapiens) (UniProt P45983); test: Inhibition of recombinant human full length His-tagged JNK1 expressed in baculovirus expression system at 0.1 uM by Z'-Lyte assay relative to control
[24] = target: Serine/threonine-protein kinase 10 (Homo sapiens) (UniProt O94804); test: Inhibition of LOK1 (unknown origin) at 0.1 uM by Z'-Lyte assay relative to control
[25] = target: Aurora kinase B (Homo sapiens) (UniProt Q96GD4); test: Inhibition of recombinant full length human His-tagged AURKB expressed in baculovirus expression system at 0.1 uM by Z'-Lyte assay relative to control
[26] = target: CDK6/cyclin D3 (Homo sapiens) (UniProt P30281+Q00534); test: Inhibition of recombinant full length human GST-tagged CDK6/Cyclin-D3 expressed in baculovirus expression system at 1 uM by TR-FRET assay relative to control
[27] = AUC (0 to 48 hrs) in CD-1 mouse brain at 10 mg/kg, po administered as single dose by LC-MS/MS analysis; format: ADME, organism-based; parameters: dose 10 mg/kg, time < 48 hr, route oral; settings: in vivo
[28] = test system: Mus musculus; test: Toxicity in nude mouse orthotopically xenografted with luciferase-fused human U87MG cells assessed as body weight loss at 3.125 to 25 mg/kg, po qd for 5 weeks; format: organism-based; settings: in vivo, 840 h
[29] = target: MAP kinase-activated protein kinase 2 (Homo sapiens) (UniProt P49137); test: Inhibition of recombinant human full length His-tagged MK2 expressed in Escherichia coli at 0.1 uM by Z'-Lyte assay relative to control
[30] = target: Insulin receptor (Homo sapiens) (UniProt P06213); test: Inhibition of recombinant human GST-tagged INSR cytoplasmic domain expressed in baculovirus expression system at 1 uM by Z'-Lyte assay relative to control
[31] = target: Hepatocyte growth factor receptor (Homo sapiens) (UniProt P08581); test: Inhibition of recombinant human His-tagged c-Met cytoplasmic domain expressed in baculovirus expression system at 1 uM by Z'-Lyte assay relative to control
[32] = test system: U-87 MG; test: Antitumor activity against luciferase-fused human U87MG cells orthotopically xenografted in nude mouse assessed as increase in mouse life span at 25 mg/kg, po qd for 5 weeks relative to control; format: functional, U-87MG ATCC; settings: 840 h

Sequence of Platelet-derived growth factor receptor beta (Homo sapiens) (P09619 whole entry, the tested form may be a part): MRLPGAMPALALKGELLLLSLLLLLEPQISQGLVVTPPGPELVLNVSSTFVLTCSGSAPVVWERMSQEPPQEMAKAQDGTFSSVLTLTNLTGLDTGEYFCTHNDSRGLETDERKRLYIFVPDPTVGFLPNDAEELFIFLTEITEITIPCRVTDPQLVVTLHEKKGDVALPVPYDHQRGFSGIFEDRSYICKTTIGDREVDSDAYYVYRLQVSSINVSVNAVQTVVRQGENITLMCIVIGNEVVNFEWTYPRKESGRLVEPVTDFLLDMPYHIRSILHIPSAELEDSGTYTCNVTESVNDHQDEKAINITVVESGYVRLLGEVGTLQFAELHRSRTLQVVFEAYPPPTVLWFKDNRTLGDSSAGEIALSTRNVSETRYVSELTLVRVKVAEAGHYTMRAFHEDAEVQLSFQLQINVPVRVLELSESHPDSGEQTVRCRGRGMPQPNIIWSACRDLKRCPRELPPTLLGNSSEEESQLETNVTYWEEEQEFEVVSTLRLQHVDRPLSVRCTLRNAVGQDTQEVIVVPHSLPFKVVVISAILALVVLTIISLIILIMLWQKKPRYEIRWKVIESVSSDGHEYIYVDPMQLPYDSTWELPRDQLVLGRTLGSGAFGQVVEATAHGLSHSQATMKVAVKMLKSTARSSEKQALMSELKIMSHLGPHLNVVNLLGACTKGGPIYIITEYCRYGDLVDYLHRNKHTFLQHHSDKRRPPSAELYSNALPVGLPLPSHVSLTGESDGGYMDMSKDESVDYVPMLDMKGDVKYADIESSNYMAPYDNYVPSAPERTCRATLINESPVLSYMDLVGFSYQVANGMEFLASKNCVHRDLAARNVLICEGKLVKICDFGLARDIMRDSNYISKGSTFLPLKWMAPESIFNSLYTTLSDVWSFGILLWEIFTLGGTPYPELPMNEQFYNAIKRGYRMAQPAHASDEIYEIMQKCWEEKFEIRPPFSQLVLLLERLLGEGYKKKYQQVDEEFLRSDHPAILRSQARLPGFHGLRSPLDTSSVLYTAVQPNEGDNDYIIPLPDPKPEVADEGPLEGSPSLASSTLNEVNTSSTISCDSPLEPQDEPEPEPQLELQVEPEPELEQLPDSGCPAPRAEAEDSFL
Sequence of Cyclin-dependent kinase 4/cyclin D1 (P11802 whole entry): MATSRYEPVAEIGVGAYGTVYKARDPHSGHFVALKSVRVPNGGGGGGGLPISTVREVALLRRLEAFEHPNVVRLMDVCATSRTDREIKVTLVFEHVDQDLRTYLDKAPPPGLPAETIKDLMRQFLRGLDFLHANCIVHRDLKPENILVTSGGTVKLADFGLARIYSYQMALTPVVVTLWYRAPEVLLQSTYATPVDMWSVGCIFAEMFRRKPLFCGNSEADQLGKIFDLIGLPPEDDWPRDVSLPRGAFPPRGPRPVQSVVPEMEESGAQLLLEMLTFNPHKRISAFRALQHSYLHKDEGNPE
Sequence of Cyclin-dependent kinase 4/cyclin D1 (P24385 whole entry, further chain): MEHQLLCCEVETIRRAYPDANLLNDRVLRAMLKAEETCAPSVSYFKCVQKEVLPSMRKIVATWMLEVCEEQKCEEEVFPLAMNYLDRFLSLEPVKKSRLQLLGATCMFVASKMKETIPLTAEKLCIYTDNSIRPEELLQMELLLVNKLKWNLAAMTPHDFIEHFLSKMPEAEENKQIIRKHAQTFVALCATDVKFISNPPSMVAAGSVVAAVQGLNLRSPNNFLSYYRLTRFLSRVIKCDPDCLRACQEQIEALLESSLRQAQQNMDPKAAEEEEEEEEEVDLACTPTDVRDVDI
Sequence of MAP kinase-activated protein kinase 2 (Homo sapiens) (P49137 whole entry, looked up, the tested form may be a part): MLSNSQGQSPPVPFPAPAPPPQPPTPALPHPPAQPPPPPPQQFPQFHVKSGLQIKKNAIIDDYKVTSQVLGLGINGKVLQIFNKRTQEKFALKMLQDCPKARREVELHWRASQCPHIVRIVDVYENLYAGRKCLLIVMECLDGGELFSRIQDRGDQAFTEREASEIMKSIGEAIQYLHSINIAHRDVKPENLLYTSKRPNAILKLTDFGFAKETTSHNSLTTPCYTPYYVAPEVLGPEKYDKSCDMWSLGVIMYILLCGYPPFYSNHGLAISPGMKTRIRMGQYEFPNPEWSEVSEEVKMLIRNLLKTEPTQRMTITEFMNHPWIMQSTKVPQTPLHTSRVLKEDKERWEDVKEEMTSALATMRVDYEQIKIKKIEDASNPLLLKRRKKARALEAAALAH
Sequence of Serine/threonine-protein kinase PLK1 (Homo sapiens) (P53350 whole entry): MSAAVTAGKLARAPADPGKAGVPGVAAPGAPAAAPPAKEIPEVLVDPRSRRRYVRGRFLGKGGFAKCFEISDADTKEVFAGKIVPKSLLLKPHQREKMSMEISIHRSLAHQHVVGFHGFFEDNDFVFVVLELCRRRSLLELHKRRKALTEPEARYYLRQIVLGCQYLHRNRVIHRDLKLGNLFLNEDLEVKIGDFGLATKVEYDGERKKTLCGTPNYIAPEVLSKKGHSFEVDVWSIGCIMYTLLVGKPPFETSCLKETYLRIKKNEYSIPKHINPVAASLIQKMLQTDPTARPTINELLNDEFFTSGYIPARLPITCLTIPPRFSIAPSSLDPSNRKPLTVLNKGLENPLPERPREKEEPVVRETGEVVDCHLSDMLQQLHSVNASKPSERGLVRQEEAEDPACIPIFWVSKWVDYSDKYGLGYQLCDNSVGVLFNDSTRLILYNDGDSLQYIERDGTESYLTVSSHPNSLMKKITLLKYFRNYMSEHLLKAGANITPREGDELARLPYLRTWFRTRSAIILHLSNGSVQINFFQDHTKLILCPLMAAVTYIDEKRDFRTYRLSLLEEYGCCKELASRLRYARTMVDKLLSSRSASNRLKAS
Sequence of Tyrosine-protein kinase JAK3 (P52333 whole entry, the tested form may be a part): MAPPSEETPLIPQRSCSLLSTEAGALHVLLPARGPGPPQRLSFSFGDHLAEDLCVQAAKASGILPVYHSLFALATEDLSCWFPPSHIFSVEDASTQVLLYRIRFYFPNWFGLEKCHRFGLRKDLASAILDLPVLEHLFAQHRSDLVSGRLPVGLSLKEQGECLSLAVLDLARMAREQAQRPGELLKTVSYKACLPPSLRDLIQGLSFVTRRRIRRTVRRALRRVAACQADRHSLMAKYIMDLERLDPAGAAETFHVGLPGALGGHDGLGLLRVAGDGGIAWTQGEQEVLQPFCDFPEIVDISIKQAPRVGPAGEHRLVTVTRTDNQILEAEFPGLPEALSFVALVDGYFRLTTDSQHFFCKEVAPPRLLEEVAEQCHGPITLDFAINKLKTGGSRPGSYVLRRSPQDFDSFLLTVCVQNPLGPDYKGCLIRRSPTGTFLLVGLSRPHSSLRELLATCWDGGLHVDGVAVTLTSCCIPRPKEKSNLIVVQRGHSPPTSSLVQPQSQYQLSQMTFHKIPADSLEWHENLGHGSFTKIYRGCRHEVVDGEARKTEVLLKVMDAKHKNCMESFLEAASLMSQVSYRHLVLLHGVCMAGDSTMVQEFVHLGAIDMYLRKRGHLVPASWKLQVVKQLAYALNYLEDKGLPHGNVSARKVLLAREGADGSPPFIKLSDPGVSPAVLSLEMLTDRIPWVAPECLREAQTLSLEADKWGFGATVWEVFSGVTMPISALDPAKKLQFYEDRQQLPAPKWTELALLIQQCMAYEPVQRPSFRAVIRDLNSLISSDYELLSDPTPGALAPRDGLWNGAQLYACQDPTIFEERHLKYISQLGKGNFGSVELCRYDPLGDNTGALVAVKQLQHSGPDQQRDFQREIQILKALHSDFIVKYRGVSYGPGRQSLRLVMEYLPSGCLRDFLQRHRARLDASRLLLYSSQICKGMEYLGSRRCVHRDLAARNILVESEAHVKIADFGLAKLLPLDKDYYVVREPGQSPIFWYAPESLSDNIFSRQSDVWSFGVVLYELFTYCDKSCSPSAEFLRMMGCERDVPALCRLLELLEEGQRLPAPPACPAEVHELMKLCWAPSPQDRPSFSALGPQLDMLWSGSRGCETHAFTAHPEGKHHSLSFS
Sequence of Epidermal growth factor receptor (Homo sapiens), P00533 [L858R,T790M] (P00533 whole entry T790M/L858R, looked up): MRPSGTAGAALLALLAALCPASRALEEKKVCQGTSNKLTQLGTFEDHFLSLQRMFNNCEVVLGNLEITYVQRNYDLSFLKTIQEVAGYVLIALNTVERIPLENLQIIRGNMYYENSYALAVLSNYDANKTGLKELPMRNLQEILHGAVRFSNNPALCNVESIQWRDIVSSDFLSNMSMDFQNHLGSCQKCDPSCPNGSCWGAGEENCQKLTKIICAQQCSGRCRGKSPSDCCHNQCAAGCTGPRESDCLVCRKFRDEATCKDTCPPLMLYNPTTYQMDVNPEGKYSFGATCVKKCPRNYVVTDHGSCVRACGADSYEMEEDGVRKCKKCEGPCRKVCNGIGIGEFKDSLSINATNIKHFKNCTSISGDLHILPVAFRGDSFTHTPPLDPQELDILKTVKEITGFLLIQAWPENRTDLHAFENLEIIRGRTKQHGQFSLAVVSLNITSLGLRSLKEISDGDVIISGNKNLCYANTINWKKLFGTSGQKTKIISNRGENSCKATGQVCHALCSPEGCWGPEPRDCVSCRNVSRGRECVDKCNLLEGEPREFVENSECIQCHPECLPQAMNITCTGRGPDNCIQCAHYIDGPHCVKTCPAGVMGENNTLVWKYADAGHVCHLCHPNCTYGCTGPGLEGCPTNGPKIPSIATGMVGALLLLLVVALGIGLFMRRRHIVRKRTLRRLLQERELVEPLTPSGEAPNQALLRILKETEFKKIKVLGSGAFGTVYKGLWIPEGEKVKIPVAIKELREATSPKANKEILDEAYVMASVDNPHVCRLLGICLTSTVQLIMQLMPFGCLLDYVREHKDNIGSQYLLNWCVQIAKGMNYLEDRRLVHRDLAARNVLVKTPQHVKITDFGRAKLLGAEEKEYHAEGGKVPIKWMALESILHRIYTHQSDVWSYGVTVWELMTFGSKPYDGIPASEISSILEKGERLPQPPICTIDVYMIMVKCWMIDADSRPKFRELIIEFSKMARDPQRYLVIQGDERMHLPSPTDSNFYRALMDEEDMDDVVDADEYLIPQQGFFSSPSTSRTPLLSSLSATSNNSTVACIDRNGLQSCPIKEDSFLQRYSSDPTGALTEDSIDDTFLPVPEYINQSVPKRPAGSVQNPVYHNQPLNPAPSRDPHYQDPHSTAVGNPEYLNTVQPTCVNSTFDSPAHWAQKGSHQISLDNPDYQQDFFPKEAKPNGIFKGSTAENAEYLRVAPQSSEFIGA

## CC1=Nc2c(F)cc(-c3nc(Nc4ccc(C5CCN(C)CC5)cn4)ncc3F)cc2C12CCCC2 [CROZBACICLIB]
[1]
  inhibition: 85%
[2]
  inhibition: 0%
[3]
  inhibition: 81%
[4]
  AUC(0-t) at 48 h: 9060 ng·h/mL
[5]
  inhibition: 4%
[6]
  Vd: 17.4 L/kg
[7]
  IC50: 154 nM
[8]
  IC50: 1 nM
[9]
  half-life: 7.1 h
[10]
  inhibition: 79%
[11]
  inhibition: 87%
[12]
  inhibition: 16%
[13]
  AUC(0-inf): 959 ng·h/mL
[14]
  ILS at 12.5 mg/kg: 48%
[15]
  inhibition: -2%
[16]
  fAUC: 63.45 ng·h/mL
[17]
  inhibition: 20%
[18]
  inhibition: -8%
[19]
  AUC(0-t) at 24 h: 1140 ng·h/mL
[20]
  inhibition: 52%
[21]
  inhibition: 6%
[22]
  IC50: 3 nM
[23]
  inhibition: 6%
[24]
  inhibition: 11%
[25]
  inhibition: 0%
[26]
  inhibition: 101%
[27]
  AUC: 37178 ng·h/g
[28]
  Activity: Non-Toxic
[29]
  inhibition: 0%
[30]
  inhibition: 12%
[31]
  inhibition: 87%
[32]
  ILS at 25 mg/kg: 103%
